According to patent US20050049174A1, “Method and substance for facilitating weaning, reducing morbidity and reducing mortality in cardiac surgeries involving extra-corporal circulation” (priority 2003, published 2005):
“Also recorded” adds a separate entry of the source. Like-named read-outs stand apart in the source and are kept apart here. Marks after values point to notes of the source that are not given here.

Experiments:
cardiac surgery patients = settings: cited from earlier work; for Result: hemodynamic effects, amrinone vs milrinone: n 44, elective cardiac surgery, bolus amrinone 0.75 mg/kg or milrinone 25 μg/kg
[1] = tested on: person operated under cardiopulmonary bypass; assay: inhaled prostacyclin at weaning from bypass in a person; format: in vivo, human; settings: weaned with inhaled prostacyclin (75 μg)
Description: In another case, a person was operated for a third time under cardiopulmonary bypass. […] Pre-operatively, they had abnormal right ventricular diastolic function with a lower systolic or S wave on the hepatic venous Doppler signal. After bypass (duration 157 min), they were weaned with inhaled prostacyclin (75 μg) and they left the operating room with noradrenaline at 2.5 μg/min and nitroglycerine at 0.4 μg/kg/min.

[2] = tested on: patient, mitral valve and tricuspid valve repair; assay: inhaled prostacyclin prior to extra-corporal circulation in a patient; format: in vivo, human
Source text: This is to be contrasted with changes observed in Doppler hepatic venous flow after inhaled prostacyclin in a patient scheduled to undergo mitral valve and tricuspid valve repair. […] This was associated with a reduction in mean pulmonary artery pressure from 36 to 29 mmHg, pulmonary vascular resistance index from 589 to 267 dynes.s/cm^5/m^2 and an increase in cardiac index from 1.9 to 2.4 L/min/m^2. Heart rate and mean arterial pressure decreased respectively from 63 to 52 beats/min and from 76 to 64 mmHg.

[3] = intravenous; animal studies; cited from earlier work
[4] = tested on: heart transplant candidate; settings: inhaled prostacyclin group; cited from earlier work
[5] = tested on: rings of porcine pulmonary artery with endothelium; assay: vascular reactivity studies in organ chambers after cardiopulmonary bypass; format: in vivo, Landrace swine; settings: for KCL: amplitude of the contraction to KCl (60 mmol/L) / Dose PE: concentration of PE used to obtain 50% of contraction to KCl: mean +/- SEM
Description: After 60 minutes of reperfusion, swine were sacrificed and pulmonary arteries harvested. After contraction to phenylephrine, pulmonary arteries endothelium-dependent relaxations to bradykinin (Gq coupled) and acetylcholine (Gi coupled) were studied in standard organ chamber experiments.
Less than 10 minutes after “en bloc” excision, the heart was removed and the primary pulmonary artery was dissected. Branches of second degree pulmonary arteries were isolated and dissected free of connective and adventitial tissue and divided into rings (4 mm wide; 16 rings per animal). All rings were placed in organ chambers (Emka technologies Inc, Paris, France) filled with 20 mL modified Krebs-bicarbonate solution continuously heated at 37° C. and oxygenated with a carbogen mixture (95% O2 and 5% CO2). The rings were suspended between 2 metal stirrups with the upper 1 connected to an isometric force transducer connected to a signal amplifier and then allowed to stabilize for 30 minutes. Data were collected with a biological signal data acquisition software (IOX 1.700; Emka technologies Inc, Paris, France). Each arterial ring was stretched to the optimal point of its active length-tension curve (3.5 g) as determined by measuring the contraction to potassium chloride (KCl) 60 mmol/L at different levels of stretch (data not shown). The maximal contraction of rings was then obtained with addition of potassium chloride (KCl 60 mmol/L). After obtention of a plateau, all baths were washed twice with modified Krebs bicarbonate solution and indomethacin ([…]; to exclude production of endogenous prostanoids) was added in each bath. After 45 minutes of stabilisation, phenylephrine (range 2 {acute over} 10-7 mol/L to 3 {acute over} 10-6 mol/L) was added to obtain a contraction averaging 50% of the maximal contraction to KCl.
The NO-mediated relaxation pathway was studied by constructing concentration-response curves to acetylcholine (ACh, 10-9 to 10-5 mol/L; an agonist of M2 receptors coupled to Gi-proteins) and to bradykinin (BK, 10-12 to 10—6 mol/L; an agonist of B2 receptors coupled to Gq-proteins).
At the end of the experiment, endothelium-independent relaxations were studied with the use of 10-5 mol/L sodium nitroprusside (SNP), a nitric oxide donor
All values are expressed as the mean±standard error of the mean (SEM). Contractions to phenylephrine are expressed as a percentage of the maximal contraction to KCl (60 mmol/L). Relaxations are expressed as the percentage of the maximal contraction to phenylephrine for each ring. Two-way repeated analysis of variance (ANOVA) were performed to compare each point of the concentration-response curves between control rings and CPB rings. Student's t test for paired/unpaired observations was used for the comparison of the pulmonary artery pressures and the intravascular cAMP content. Statistical analysis was performed with the computer software S.A.S (Instr Inc. Cary, N.C., USA). A P-value less than 0.05 was considered statistically significant.

[6] = tested on: person in cardiogenic shock; assay: inhaled milrinone in a person in cardiogenic shock (echocardiographic and hemodynamic monitoring); format: in vivo, human; settings: 5 mg milrinone through inhalation
Source text: Finally, the cardiac index increased from 1.8 to 2.8 L.min/m^2.

[7] = tested on: porcine subjects undergoing cardiopulmonary bypass
[8] = tested on: patients with pulmonary hypertension; settings: inhaled milrinone; cited from earlier work
[9] = tested on: coronary care unit patients hospitalized for an exacerbation of chronic heart failure; settings: cited from earlier work
[10] = n 120, low CO after cardiac surgery

In the case of [N]=O [NO, nitric oxide], the “Result: right ventricular ejection fraction” value (cardiac surgery patients; n 45, pulmonary hypertension, Group 3 40 ppm NO compared to group 1 (milrinone) and 2 (20 ppm NO)) is listed as “Group 3 (40 ppm)higher right”.
For Nc1cc(-c2ccncc2)c[nH]c1=O [amrinone], the “Result: hemodynamic effects, amrinone vs milrinone” value (cardiac surgery patients) is given as “produced similar”.
For CCCCC[C@H](O)/C=C/[C@@H]1[C@H]2C/C(=C/CCCC(=O)O)O[C@H]2C[C@H]1O [prostacyclin], the “vasoactive drugs in the post-operative period” value [1] was “No vasoactive drugs were required”, the “mean arterial pressure after bypass” value ([1]; decreased from 78) was 67 mmHg and the “cardiac index after bypass” value ([1]; increase from 2.3) was 3.3 L/min/m^2. For the same molecule, the “heart rate after bypass” value ([1]; increased from 66) was 85 beats/min, the “pulmonary vascular resistance indexed after bypass” value ([1]; reduction from 242) was 121 dynes.s/cm^5/m^2 and the “hepatic venous flow signal” value ([1]; right ventricular diastolic waveform still abnormal) was “did not change significantly”. For the same molecule, the “vasoactive drugs used post-operatively” value [2] was “no vasoactive drugs used”, the “difficult separation from bypass” value ([2]; cardiopulmonary bypass time of 138 min) was “no difficult separation from bypass” and the heart rate ([2]; decreased from 63) was 52 beats/min. The mean arterial pressure ([2]; decreased from 76) was 64 mmHg, the cardiac index ([2]; increase from 1.9) was 2.4 L/min/m^2 and the “Doppler hepatic venous flow systolic or S wave” value ([2]; negative value before, within 18 minutes) was “became positive and less pronounced”. The “mean pulmonary artery pressure” value ([2]; reduction from 36) was 29 mmHg, the “pulmonary vascular resistance index” value ([2]; reduction from 589) was 267 dynes.s/cm^5/m^2 and the half-life [3] was 2 to 3 min. The “cardiac output increased by” value [4] was 11%.
For CC(CCc1ccc(O)cc1)NCCc1ccc(O)c(O)c1 (stereo not drawn) [dobutamine], the “Result: overall comparison milrinone and dobutamine” value (cardiac surgery patients; [10]) is given as “comparable” and the “Result: increases in cardiac index” value (cardiac surgery patients; n 120, low CO after cardiac surgery, dobutamine 10 to 20 μg/kg/min vs milrinone) is given as “group D had greater”.
With Cc1[nH]c(=O)c(C#N)cc1-c1ccncc1 [milrinone] the “KCL: amplitude of the contraction to KCl (60 mmol/L)” value ([5]; Mil INH group) was 4.8 +/− 0.28, the “Dose PE: concentration of PE used to obtain 50% of contraction to KCl” value (“Dose PE … to obtain 50% of contraction to KCl” below) ([5]; Mil INH group, p<0.01 vs intravenous milrinone, p<0.05 vs control) was “greater” and the “Dose PE … to obtain 50% of contraction to KCl” value ([5]; Mil INH group, p<0.01 vs intravenous milrinone, p<0.05 vs control, listed as Mil INH) was 8.3 +/− 0.93*,**. The “Dose PE … to obtain 50% of contraction to KCl” value ([5]; Mil IV group) was 4.1 +/− 0.3, the “KCL: amplitude of the contraction to KCl (60 mmol/L)” value ([5]; Mil IV group) was 4.0 +/− 0.3 and the “endothelium-dependent relaxation to BK” value ([5]; inhaled milrinone compared to all other groups, P<0.05, FIG. 10) was “increased relaxation; also recorded: preventive effect”. The “CPB-induced decrease of endothelium-dependent relaxation to ACh” value ([5]; inhaled milrinone prior to CPB, FIG. 9) was “completely reversed; also recorded: preventive effect”, the “endothelium-dependent relaxation to BK: preventive effect on endothelial function” value ([5]; intravenous milrinone, FIG. 10) was “not seen” and the “right atrial pressure (RAP) after administration” value ([6]; decrease from 17) was 7 mm Hg. For the same molecule, the “mean pulmonary arterial pressure after administration” value ([6]; decrease from 33) was 24 mm Hg, the “mean arterial pressure after administration” value ([6]; decrease from 92) was 77 mm Hg and the “heart rate after administration” value ([6]; increase from 72) was 84 beats/minutes. The “systemic vascular resistance after bolus” value ([7]; in vivo) was “did not fall”, the heart rate ([7]; in vivo, iv) was “increased” and the “systemic vascular resistance after bolus” value ([7]; in vivo, iv) was “important decrease”. The heart rate ([7]; inhaled milrinone vs CPB, at 15, 45 and 75 minutes per CPB and 30 and 60 minutes post CPB, p<0.05, FIG. 6) was “significantly lower”, the “mean arterial pressure following administration of the bolus” value ([7]; inhaled milrinone, bolus of 60-90 mg/kg via nebulizer during 15 minutes preceding CPB, p<0.05, FIG. 2) was “significant decrease” and the pulmonary vascular resistance [8] was “reduce pulmonary vascular resistance; also recorded: lowered pulmonary vascular resistances”. For the same molecule, the “Result: wean from bypass” value (cardiac surgery patients; n 32, LVEF ≦ 35%, PCWP ≧ 20 mmHg pre-bypass, bolus 50 ug/kg, perfusion 0.5 ug/kg/min, vs 5/15 placebo) was “All patients with milrinone”, the “Result: hemodynamic effects, amrinone vs milrinone” value (cardiac surgery patients) was “produced similar” and the “Result: overall comparison milrinone and dobutamine” value (cardiac surgery patients; [10]) was “comparable”. The “Result: decreases in mean pulmonary capillary wedge pressure” value (cardiac surgery patients; n 120, low CO after cardiac surgery, milrinone 50 μg/kg and perfusion 0.5 μg/kg/min vs dobutamine) was “Group M had greater”, the “median number of days hospitalized for cardiovascular causes within 60 days” value ([9]; intravenous milrinone vs placebo) was “no difference” and the in-hospital mortality ([9]; intravenous milrinone, vs 2.3% placebo, P=0.19) was 3.8%. The 60-day mortality ([9]; intravenous milrinone, vs 8.9% placebo, P=0.41) was 10.3%.
